Read-outs that look alike come from different tables or passages of the source.
Experiments:
PKMYT1 = biological target: T1, PKMYT1 (Homo sapiens, UniProt Q99640); test: ADP-Glo PKMYT1 ATP-depletion assay; settings: 50 nM PKMYT1, 13.3 nM CDK1, 88 μM ATP, 120 minutes at RT, read-out: Biochemical IC50
T1 construct: PKMYT1 (93 kD, full length, N-terminal GST tag from Signal Chem); GST (N); purchased Signal Chem
T1 sequence (Q99640 1-499): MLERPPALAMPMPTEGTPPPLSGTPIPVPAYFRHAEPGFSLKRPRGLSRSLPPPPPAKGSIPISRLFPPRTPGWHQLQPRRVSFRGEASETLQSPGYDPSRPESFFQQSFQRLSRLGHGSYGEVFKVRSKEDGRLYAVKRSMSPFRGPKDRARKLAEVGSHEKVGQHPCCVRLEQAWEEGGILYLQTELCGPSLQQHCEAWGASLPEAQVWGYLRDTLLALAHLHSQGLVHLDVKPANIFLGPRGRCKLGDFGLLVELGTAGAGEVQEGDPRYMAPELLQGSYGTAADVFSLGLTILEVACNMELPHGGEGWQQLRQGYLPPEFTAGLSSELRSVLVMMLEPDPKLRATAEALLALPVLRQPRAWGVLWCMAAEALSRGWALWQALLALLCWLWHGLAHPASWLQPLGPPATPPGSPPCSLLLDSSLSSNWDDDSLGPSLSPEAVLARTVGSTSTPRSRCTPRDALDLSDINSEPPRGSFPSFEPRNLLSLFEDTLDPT
Procedure: (§1) Biochemical IC50 values were determined via ADP-Glo™ assay. Cellular IC50 values were determined via AlphaLISA assay.
ADP-Glo™ PKMYT1 ATP-depletion assay. The activity of PKMYT1 is measured using a luciferase-luciferin based ATP detection reaction to quantify ATP depletion resulting from kinase-catalyzed phosphoryl transfer to CDK1 or autophosphorylation of PKMYT1. The ADP generated as a byproduct of the reaction is converted to ATP and used to drive a luciferase reaction. Test compounds were dissolved in DMSO and dispensed into Corning 3824 384-well plates prior to the experiment such that the final DMSO concentration was <10%. To the compounds was added 3 μL of PKMYT1 (93 kD, full length, N-terminal GST tag from Signal Chem). The reaction was started by the addition of 2 μL of CDK1 (58 kDa, full length, N-terminal GST tag from Signal Chem) and ATP in assay buffer (50 mM Hepes, 40 mM NaCl, 10 mM MgCl2, 1 mM DTT, 0.1 mg/mL BSA, 2.5 mM MnCl2). Final assay concentrations were 50 nM PKMYT1, 13.3 nM CDK1, and 88 μM ATP. Plates were centrifuged for 1 minute at 1000 RPM and incubated at RT for 120 minutes. After the incubation period, ADP-Glo™ reagent was added and the plates were incubated for another 40 minutes before finally adding the kinase detection reagent, 30 minutes after the addition, plates were placed on a PHERAstar® plate reader and read using the Luminescence Protocol, integration time at 0.5 seconds.

[1] = tested on: phosphorylation of CDK1 at Thr14 in HCC1806 cells; test: Cell lysate AlphaLISA assay measuring inhibition of phosphorylation of CDK1 Thr14; assay type: cell-based; settings: compounds incubated 4 hours, AlphaLISA SureFire Ultra CDK1 Thr14, read-out: Cellular IC50
Procedure: as §1
Cell lysate AlphaLISA® assay measuring inhibition of phosphorvlation of CDK1 Thr14. Inhibition of phosphorylation of CDK1 at Thr14 was determined using AlphaLISAn SureFire® Ultra™ Kit from Perkin Elmer (ALSU-PCDK1-A10K). HCC1806 cells were seeded at 2K cells per well (50 μl/well) in 384-well plates (Corning 3570) and stored overnight at 37° C. and 5% CO2. The following day, the compounds dissolved in DMSO were introduced to the cells and incubated for 4 hours at 37° C. and 5% CO2. The cells were then washed with PBS using Blue® Washer and 10 μl of lysis buffer containing protease inhibitor was added. The plate was placed on an orbital shaker (at 4° C.) for 30 minutes and stored overnight at −80° C. for complete lysing. The next day, the plates were thawed at room temperature for at least 30 min. Reagents were prepared in a dimmed light setting (<100 lumens). The assay was run by first adding 5 μl of the acceptor mix (reaction buffer 1: reaction buffer 2:activation buffer:acceptor beads 47:47:4:2), covering the plate with foil, shaking for 2 minutes, and incubating at RT for 60 minutes. The donor mix (dilution buffer:donor beads 47:3) was then added at 5 μl per well, placed on the shaker for 2 minutes and incubated at RT for 60 minutes before reading the plates on a PHERAstar® plate reader. The results were normalized to DMSO (0% Inhibition) and 3 μM of reference compound.

| SMILES | IC50 (PKMYT1) [nM] | IC50 ([1]; Homo sapiens, HCC1806, 4 h) [nM] | IC50 [1] [nM] |
| --- | --- | --- | --- |
| [2H]c1cc(C)c(-c2cc(C(N)=O)nc3c2c(C#N)cn3CC)c(C)c1O (atropisomer, axis not shown; (P)) [Compound 89, (P)-3-cyano-1-ethyl-4-(3-hydroxy-2,6-dimethylphenyl-4-d)-1H-pyrrolo[2,3-b]pyridine-6-carboxamide] | < 50 | < 50 |  |
| Cc1ccc(O)c(C)c1-c1c(N)c(C(N)=O)cc2c1ncn2-c1ncccc1F (atropisomer, axis not shown; (P)) [Compound 87, (P)-5-amino-1-(3-fluoropyridin-2-yl)-4-(3-hydroxy-2,6-dimethylphenyl)-1H-benzo[d]imidazole-6-carboxamide] | < 50 | < 50 |  |
| Cc1ccc(O)c(C)c1-c1c(N)c(C(N)=O)cc2c1nc(C(F)F)n2-c1ncccc1F (atropisomer, axis not shown; (P)) [Compound 95, (P)-6-amino-2-(difluoromethyl)-3-(3-fluoro-2-pyridyl)-7-(3-hydroxy-2,6-dimethyl-phenyl)benzimidazole-5-carboxamide] | < 50 | < 50 |  |
| Cc1ccc(O)c(C)c1-c1cc(C(N)=O)nc2c1ccn2C [Compound 21, 4-(3-hydroxy-2,6-dimethylphenyl)-1-methyl-pyrrolo[2,3-b]pyridine-6-carboxamide] | 500 to 1000 | ≥ 5000 |  |
| Cc1ccc(O)c(C)c1-c1cc(C(N)=O)nc2c1cnn2C [Compound 17, 4-(3-hydroxy-2,6-dimethylphenyl)-1-methyl-pyrazolo[3,4-b]pyridine-6-carboxamide] | 1000 to 5000 | ≥ 5000 |  |
| Cc1c(O)cccc1-c1c(N)c(C(N)=O)cn2c(C)nnc12 (single isomer, unassigned) [Compound 52, (P)-7-Amino-8-(3-hydroxy-2-methylphenyl)-3-methyl-[1,2,4]triazolo[4,3-a]pyridine-6-carboxamide] | 50 to 500 | ≥ 5000 |  |
| CCn1cc(-n2ccnc2)c2c(-c3c(C)ccc(O)c3C)cc(C(N)=O)nc21 (atropisomer, axis not shown; (P)) [Compound 97, (P)-1-ethyl-4-(3-hydroxy-2,6-dimethylphenyl)-3-(1H-imidazol-1-yl)-1H-pyrrolo[2,3-b]pyridine-6-carboxamide] | 50 to 500 | 1000 to 5000 |  |
| Cc1c(Cl)cncc1-c1c(N)c(C(N)=O)nc2c1c(C#N)c(C)n2C [Compound 12] | < 50 | 50 to 500 |  |
| Cc1c(O)cccc1-c1c(N)c(C(N)=O)nc2c1c(C#N)c(C)n2CC(F)(F)F [Compound 14] | < 50 | < 50 |  |
| Cc1c(O)cccc1-c1c(N)c(C(N)=O)cn2ccnc12 [Compound 43, 7-amino-8-(3-hydroxy-2-methylphenyl)imidazo[1,2-a]pyridine-6-carboxamide] | 500 to 1000 | ≥ 5000 |  |
| Cc1ccc(O)c(C)c1-c1cc(C(N)=O)nc2cnn(C)c12 [Compound 18, 7-(3-hydroxy-2,6-dimethylphenyl)-1-methyl-pyrazolo[4,3-b]pyridine-5-carboxamide] | 1000 to 5000 | ≥ 5000 |  |
| Cc1c(F)cncc1-c1c(N)c(C(N)=O)nc2c1c(C#N)cn2C [Compound 8, 5-Amino-3-cyano-4-(5-fluoro-4-methylpyridin-3-yl)-1-methyl-1H-pyrrolo[2,3-b]pyridine-6-carboxamide] | < 50 | 50 to 500 |  |
| Cc1ccc(O)c(C)c1-c1cc(C(N)=O)nc2c1c(C#N)cn2CC(F)F (atropisomer, axis not shown; (P)) [Compound 93, (P)-3-cyano-1-(2,2-difluoroethyl)-4-(3-hydroxy-2,6-dimethylphenyl)-1H-pyrrolo[2,3-b]pyridine-6-carboxamide] | < 50 | < 50 |  |
| COc1c(F)cncc1-c1c(N)c(C(N)=O)nc2c1c(C#N)cn2C [Compound 67, 5-Amino-3-cyano-4-(5-fluoro-4-methoxypyridin-3-yl)-1-methyl-1H-pyrrolo[2,3-b]pyridine-6-carboxamide] | < 50 | < 50 |  |
| Cc1c(O)cccc1-c1c(N)c(C(N)=O)nc2c1c(C#N)cn2C (single isomer, unassigned) [Compound 5, (M)-5-Amino-3-cyano-4-(3-hydroxy-2-methylphenyl)-1-methyl-1H-pyrrolo[2,3-b]pyridine-6-carboxamide] | < 50 | < 50 |  |

Next, values leading:

| IC50 (PKMYT1) [nM] | IC50 ([1]; Homo sapiens, HCC1806, 4 h) [nM] | IC50 [1] [nM] | SMILES |
| --- | --- | --- | --- |
| < 50 | < 50 |  | Cc1ccc(O)c(C)c1-c1c(N)c(C(N)=O)nc2c1nc(C)n2C(C)C (single isomer, unassigned) [Compound 84, (P)-6-amino-7-(3-hydroxy-2,6-dimethylphenyl)-3-isopropyl-2-methyl-3H-imidazo[4,5-b]pyridine-5-carboxamide] |
| < 50 | < 50 |  | Cc1ccc(O)c(C)c1-c1c(N)c(C(N)=O)nc2c1ncn2C(C)C (single isomer, unassigned) [Compound 83, (P)-6-amino-7-(3-hydroxy-2,6-dimethylphenyl)-3-isopropyl-3H-imidazo[4,5-b]pyridine-5-carboxamide] |
| < 50 | < 50 |  | Cc1ccc(O)c(C)c1-c1c(N)c(C(N)=O)nc2c1ncn2C1CC(F)(F)C1 (atropisomer, axis not shown; (P)) [Compound 75, (P)-6-amino-3-(3,3-difluorocyclobutyl)-7-(3-hydroxy-2,6-dimethylphenyl)-3H-imidazo[4,5-b]pyridine-5-carboxamide] |
| < 50 | < 50 |  | CCn1cc(C#N)c2c(-c3ccc(C)c(O)c3C)c(N)c(C(N)=O)nc21 (single isomer, unassigned) [Compound 82, (M)-5-amino-3-cyano-1-ethyl-4-(3-hydroxy-2,4-dimethylphenyl)-1H-pyrrolo[2,3-b]pyridine-6-carboxamide] |
| < 50 | < 50 |  | CCn1nc(C(=O)NC)c2c(-c3c(C)ccc(O)c3C)c(N)c(C(N)=O)nc21 [Compound 73, 5-Amino-1-ethyl-4-(3-hydroxy-2,6-dimethylphenyl)-N^3-methyl-1H-pyrazolo[3,4-b]pyridine-3,6-dicarboxamide] |
| < 50 | < 50 |  | CCn1cc(C(N)=O)c2c(-c3c(C)ccc(O)c3C)c(N)c(C(N)=O)nc21 (atropisomer, axis not shown; (M)) [Compound 76, (M)-5-Amino-1-ethyl-4-(3-hydroxy-2,6-dimethylphenyl)-1H-pyrrolo[2,3-b]pyridine-3,6-dicarboxamide] |
| 50 to 500 | 50 to 500 |  | Cc1c(O)cccc1-c1c(N)c(C(N)=O)nc2c1c(Br)nn2C [Compound 57, 5-Amino-3-bromo-4-(3-hydroxy-2-methylphenyl)-1-methyl-1H-pyrazolo[3,4-b]pyridine-6-carboxamide] |
| < 50 |  | < 50 | Cc1ccc(O)c(C)c1-c1c(N)c(C(N)=O)nc2c1ncn2C (single isomer, unassigned) [Compound 2, (P)-6-Amino-7-(3-hydroxy-2,6-dimethylphenyl)-3-methyl-3H-imidazo[4,5-b]pyridine-5-carboxamide] |

From patent publication US20260207565A1, “COMPOUNDS THAT INHIBIT PKMYT1” (Exelixis, Inc., priority 2022, published 2026)
